Consider twelve molecules from ChEMBL document CHEMBL3612037, “Design and synthesis of some new pyrazolyl-pyrazolines as potential anti-inflammatory, analgesic and antibacterial agents” (Eur J Med Chem, 2015).

SMILES strings stand for the structures. ≈ marks a conversion by molar mass, not a printed value. Calls of active or inactive are those of the source. The rule behind the calls is not given here.

The test system of data set [1] is Mus musculus. In words: Acute toxicity in Swiss mouse assessed as induction of diarrhoea incidence at 100 to 1000 mg/kg, po measured 48 hrs post dose. The note with it: in vivo. The format is organism-based.
Data set [2] relates to Rattus norvegicus. Description: Analgesic activity in Wistar rat assessed as tail flick latency time at 50 mg/kg, po measured 0 mins post dose by tail flick method (reference value: 3.5 +/- 0.8 secs). The format is functional.
In data set [3] the test system is Rattus norvegicus. In words: Analgesic activity in Wistar rat assessed as tail flick latency time at 50 mg/kg, po measured 30 mins post dose by tail flick method (reference value: 3.46 +/- 0.1 secs). In kind it is functional.
Data set [4] has as its system Rattus norvegicus. In words: Anti-inflammatory activity in Wistar rat assessed as inhibition of carrageenan-induced paw oedema at 50 mg/kg, po dosed 30 mins before carrageenan challenge and measured 30 mins post carrageenan challenge. The format is functional. Background: Carrageenan injected into the paw causes an acute inflammation.
Data set [5] concerns Escherichia coli. Description: Antimicrobial activity against Escherichia coli at 20 uL of 1 mg/ml by disc diffusion assay. The format is functional. Particulars: for zone of inhibition at 1000 µg/mL: read-out: IZ. In general terms: In agar diffusion tests the substance spreads into inoculated agar from a disc or well.
Data set [6] deals with Aeromonas hydrophila. In words: Antimicrobial activity against Aeromonas hydrophila at 20 uL of 1 mg/ml by disc diffusion assay. In kind it is functional. The note with it: for zone of inhibition at 1000 µg/mL: read-out: IZ.
Data set [7] has as its system Staphylococcus aureus. In words: Antimicrobial activity against Staphylococcus aureus at 20 uL of 1 mg/ml by disc diffusion assay. In kind it is functional. Particulars: read-out: IZ.
The subject of data set [8] is Rattus norvegicus. Description: Anti-inflammatory activity in Wistar rat assessed as inhibition of carrageenan-induced paw oedema at 50 mg/kg, po dosed 30 mins before carrageenan challenge and measured 120 mins post carrageenan challenge. In kind it is functional.
Data set [9] in a line: Acute toxicity in Swiss mouse at 100 to 1000 mg/kg, po measured 48 hrs post dose. In kind it is organism-based. Particulars: in vivo.
The test system of data set [10] is Rattus norvegicus. Description: Analgesic activity in Wistar rat assessed as tail flick latency time at 50 mg/kg, po measured 90 mins post dose by tail flick method (reference value: 3.7 +/- 0.1 secs). In kind it is functional.
Data set [11] deals with Aeromonas hydrophila. In words: Antimicrobial activity against Aeromonas hydrophila by agar dilution method. The format is functional. Background: Agar dilution tests growth on a series of plates holding different concentrations.
The test system of data set [12] is Mus musculus. Description: Acute toxicity in Swiss mouse assessed as induction of depression incidence at 100 to 1000 mg/kg, po measured 48 hrs post dose. The note with it: in vivo. In kind it is organism-based.
Data set [13] concerns Rattus norvegicus. Description: Analgesic activity in Wistar rat assessed as tail flick latency time at 50 mg/kg, po measured 60 mins post dose by tail flick method (reference value: 3.47 +/- 0.1 secs). In kind it is functional.
Data set [14] concerns Rattus norvegicus. In words: Anti-inflammatory activity in Wistar rat assessed as inhibition of carrageenan-induced paw oedema at 50 mg/kg, po dosed 30 mins before carrageenan challenge and measured 60 mins post carrageenan challenge. The format is functional.
The subject of data set [15] is Staphylococcus. In words: Antimicrobial activity against Staphylococcus citreus at 20 uL of 1 mg/ml by disc diffusion assay. The note with it: for zone of inhibition at 1000 µg/mL: read-out: IZ. In kind it is functional.
For data set [16], the system named is Escherichia coli. Description: Antimicrobial activity against Escherichia coli by agar dilution method. In kind it is functional.
For data set [17], the system named is Staphylococcus. In words: Antimicrobial activity against Staphylococcus citreus by agar dilution method. In kind it is functional.
The test system of data set [18] is Staphylococcus aureus. In words: Antimicrobial activity against Staphylococcus aureus by agar dilution method. The format is functional.
Data set [19] relates to Rattus norvegicus. In words: Analgesic activity in Wistar rat assessed as tail flick latency time at 20 mg/kg, po measured 0 mins post dose by tail flick method (reference value: 3.5 +/- 0.8 secs). The format is functional.
Data set [20] deals with Rattus norvegicus. In words: Analgesic activity in Wistar rat assessed as tail flick latency time at 20 mg/kg, po measured 30 mins post dose by tail flick method (reference value: 3.46 +/- 0.1 secs). In kind it is functional.
For data set [21], the system named is Rattus norvegicus. In words: Analgesic activity in Wistar rat assessed as tail flick latency time at 20 mg/kg, po measured 90 mins post dose by tail flick method (reference value: 3.7 +/- 0.1 secs). The format is functional.
Data set [22] has as its system Rattus norvegicus. Description: Analgesic activity in Wistar rat assessed as tail flick latency time at 20 mg/kg, po measured 60 mins post dose by tail flick method (reference value: 3.47 +/- 0.1 secs). In kind it is functional.
The subject of data set [23] is Rattus norvegicus. In words: Anti-inflammatory activity in Wistar rat assessed as inhibition of carrageenan-induced paw oedema at 20 mg/kg, po dosed 30 mins before carrageenan challenge and measured 30 mins post carrageenan challenge. The format is functional.
In data set [24] the test system is Rattus norvegicus. Description: Anti-inflammatory activity in Wistar rat assessed as inhibition of carrageenan-induced paw oedema at 20 mg/kg, po dosed 30 mins before carrageenan challenge and measured 120 mins post carrageenan challenge. The format is functional.
Data set [25] has as its system Rattus norvegicus. Description: Anti-inflammatory activity in Wistar rat assessed as inhibition of carrageenan-induced paw oedema at 20 mg/kg, po dosed 30 mins before carrageenan challenge and measured 60 mins post carrageenan challenge. In kind it is functional.

As usually defined, the inhibition in vivo is the percentage by which the read-out fell short of the control. Broadly, the LD50 is the dose at which mortality reaches 50%. What is called MIC is the lowest concentration found to suppress growth. A higher MIC goes with a less susceptible organism. As for `Clc1ccc(C2=NN(c3ccccc3)C(c3cn(-c4ccccc4)nc3-c3ccc(Cl)c(Cl)c3)C2)cc1` (stereo not given), the Activity entry in data set [1] and in [12] was “Non-toxic” each time. The Time stood at 4.3 s in data set [2], 6.1 s in data set [3], 4.9 s in data set [10] and 6.1 s in [13]. The inhibition in vivo at 50 mg/kg worked out at 45.7% in data set [4], 61.7% in [8] and 53.4% in data set [14]. Moreover, in data set [5], the “inhibition zone (IZ)” value was “inactive”. Besides, the zone of inhibition at 1000 µg/mL in [6] was determined as 28 mm; in [7], 15 mm; in data set [15], 19 mm. In data set [9], the LD50 at 48 h turned out to be 500 mg/kg. The molecule also came in with an MIC in data set [11] of 400 µg/mL (≈ 735 µM).
Take `Clc1ccc(C2=NNC(c3cn(-c4ccccc4)nc3-c3ccc(Cl)c(Cl)c3)C2)cc1` (stereo not given): the Activity entry in data set [1] and in data set [12] was “Non-toxic” in each case. Besides, the Time in data set [2] is reported as 3.6 s; in data set [3] it was 5.4 s; in data set [10], 4.6 s; in data set [13] it was 5.7 s. Besides, the figures for the inhibition in vivo at 50 mg/kg in data set [4], in [8] and in data set [14] were 33%, 48.4% and 45.8%, respectively. In addition, the zone of inhibition at 1000 µg/mL in data set [5] was 34 mm; in data set [6], 15 mm; in data set [7], 21 mm; in data set [15], 18 mm. Also, in data set [9], the 50% lethal dose (LD50) at 48 h was 500 mg/kg. In [16], it took 200 µg/mL (≈ 428 µM) to inhibit growth (MIC).
For `Fc1ccc(C2=NN(c3ccccc3)C(c3cn(-c4ccccc4)nc3-c3ccc(Cl)c(Cl)c3)C2)cc1` (stereo not given), the Activity entry in data set [1] and in [12] was “Non-toxic” in each case. In addition, the MIC in data set [17] turned out to be 200 µg/mL (≈ 379 µM); in data set [18], 300 µg/mL (≈ 569 µM). Moreover, the Time in data set [2] came out at 3.1 s; in [3], 4.6 s; in data set [10], 4.8 s; in data set [13], 5.2 s. In addition, the inhibition in vivo at 50 mg/kg was determined as 44.7% in data set [4], 60.1% in [8] and 55.7% in [14]. For the same molecule, the zone of inhibition at 1000 µg/mL came to 21 mm in data set [5], 31 mm in data set [7] and 37 mm in [15]. Moreover, in [6], the “inhibition zone (IZ)” value is “inactive”. For the same molecule, the LD50 at 48 h in [9] is 500 mg/kg.
Consider `CO/N=C(\C(=O)N[C@@H]1C(=O)N2C(C(=O)O)=C(COC(N)=O)CS[C@H]12)c1ccco1` [CEFUROXIME], for which the minimum inhibitory concentration (MIC) in [17] was 600 µg/mL (≈ 1410 µM); in [11], 500 µg/mL (≈ 1180 µM); in [16], 500 µg/mL (≈ 1180 µM).
On to `CN[C@H](CC(C)C)C(=O)N[C@H]1C(=O)N[C@@H](CC(N)=O)C(=O)N[C@H]2C(=O)N[C@H]3C(=O)N[C@H](C(=O)N[C@H](C(=O)O)c4cc(O)cc(O)c4-c4cc3ccc4O)[C@H](O)c3ccc(c(Cl)c3)Oc3cc2cc(c3O[C@@H]2O[C@H](CO)[C@@H](O)[C@H](O)[C@H]2O[C@H]2C[C@](C)(N)[C@H](O)[C@H](C)O2)Oc2ccc(cc2Cl)[C@H]1O` [VANCOMYCIN], for which the MIC in [17] and in data set [18] was 500 µg/mL (≈ 345 µM) each time.
Consider `CC(C)=CCN1CC[C@]2(C)c3cc(O)ccc3C[C@H]1[C@H]2C` [(+)-PENTAZOCINE], for which the Time came to 3.6 s in [19], 7.4 s in data set [20], 7.9 s in data set [21] and 7.7 s in data set [22].
For the molecule `CCC(=O)N1N=C(c2ccc(F)cc2)CC1c1cn(-c2ccccc2)nc1-c1ccc(Cl)c(Cl)c1` (stereo not given), the Activity result in [1] and in data set [12] was “Non-toxic” in each case. In addition, the Time in [2] stood at 3.4 s; in data set [3], 7.9 s; in [10], 7.2 s; in data set [13] it was 7.7 s. Also, the values for the inhibition in vivo at 50 mg/kg in data set [4], in [8] and in [14] were 51.1%, 75.6% and 63.4%, respectively. The zone of inhibition at 1000 µg/mL was determined as 21 mm in data set [5], 28 mm in [6], 23 mm in data set [7] and 15 mm in data set [15]. In data set [9], this molecule yielded an LD50 at 48 h of 500 mg/kg. In data set [11], this molecule showed an MIC of 400 µg/mL (≈ 788 µM).
In the case of `CN(C)[C@@H]1C(O)=C(C(N)=O)C(=O)[C@@]2(O)C(O)=C3C(=O)c4c(O)cccc4[C@@](C)(O)[C@H]3C[C@@H]12` [TETRACYCLINE], the MIC in [17] was 300 µg/mL (≈ 675 µM); in [11] it was 400 µg/mL (≈ 900 µM); in data set [18] it was 300 µg/mL (≈ 675 µM); in data set [16], 400 µg/mL (≈ 900 µM).
With `O=C(O)Cc1ccccc1Nc1c(Cl)cccc1Cl` [DICLOFENAC SODIUM], the inhibition in vivo at 20 mg/kg in [23] was 46.8%; in [24] it was 76.6%; in data set [25], 71%.
Regarding `CCC(=O)N1N=C(c2ccc(C)cc2)CC1c1cn(-c2ccccc2)nc1-c1ccc(Cl)c(Cl)c1` (stereo not given), the Activity entry in data set [1] and in data set [12] was “Non-toxic” each time. For the same molecule, the Time is given as 3.3 s in [2], 5.3 s in [3], 5.9 s in data set [10] and 6.4 s in data set [13]. Besides, the inhibition in vivo at 50 mg/kg in [4] turned out to be 29.8%; in data set [8], 70.3%; in data set [14], 61.1%. The zone of inhibition at 1000 µg/mL stood at 22 mm in [5] and 24 mm in data set [7]. The “inhibition zone (IZ)” value in [6] and in [15] was “inactive” in each case. In addition, the LD50 at 48 h in data set [9] worked out at 500 mg/kg.
`CC1(C)S[C@@H]2[C@H](NC(=O)[C@H](N)c3ccccc3)C(=O)N2[C@H]1C(=O)O` [AMPICILLIN]: the minimal inhibitory concentration (MIC) in data set [17] turned out to be 200 µg/mL (≈ 572 µM); in data set [11], 200 µg/mL (≈ 572 µM); in data set [18], 300 µg/mL (≈ 859 µM); in [16], 100 µg/mL (≈ 286 µM).
As to `CCC(=O)N1N=C(c2ccc(Cl)cc2)CC1c1cn(-c2ccccc2)nc1-c1ccc(Cl)c(Cl)c1` (stereo not given), the Activity entry in [1] and in data set [12] was “Non-toxic” in each case. The Time was 3.3 s in data set [2], 6.1 s in [3], 5.4 s in data set [10] and 6.8 s in data set [13]. The inhibition in vivo at 50 mg/kg in [4] is 47.9%; in [8] it was 68.8%; in data set [14] it was 61.1%. The zone of inhibition at 1000 µg/mL in [5] stood at 19 mm; in data set [6], 23 mm; in data set [7], 30 mm; in data set [15], 18 mm. Also, in data set [9], the LD50 at 48 h was found to be 500 mg/kg. Moreover, the minimum inhibitory concentration (MIC) in data set [18] was 300 µg/mL (≈ 573 µM).
